Values joined by “and” are separate entries in the source; they are usually repeats but may differ in a detail not shown here. Identical values can stand only once. Active and inactive are the calls of the source. No rule for the calls is given here.
Tested on: rodent lifetime carcinogenesis bioassay, tumor incidence TD50
Experiment: chronic cancer bioassays in animals – CPDB, compiled studies (AID 1745844)
Conditions: inhaled; for carcinogen call: lesion: one or several types, types not named

C=CC(=C)Cl
TD50 (hamster, strain Syrian Golden, females, site: any site (literature study), lesion: several types, types named in the paper, dosed 78 weeks, study length 78 weeks): 180 mg/kg/day (inactive) | carcinogen call (hamster, strain Syrian Golden, females, site: liver, dosed 78 weeks, study length 78 weeks): negative (inactive) | carcinogen call (hamster, strain Syrian Golden, females, site: lung, dosed 78 weeks, study length 78 weeks): negative (inactive) | TD50 (hamster, strain Syrian Golden, males, site: any site (literature study), lesion: several types, types named in the paper, dosed 78 weeks, study length 78 weeks): 110 mg/kg/day (inactive) | carcinogen call (hamster, strain Syrian Golden, males, site: liver, dosed 78 weeks, study length 78 weeks): negative (inactive) | carcinogen call (hamster, strain Syrian Golden, males, site: lung, dosed 78 weeks, study length 78 weeks): negative (inactive) | TD50 (mouse, strain B6C3F1, females, site: Harderian gland, lesion: adenoma + carcinoma, dosed 104 weeks, study length 104 weeks): 55.2 mg/kg/day | TD50 (mouse, strain B6C3F1, females, site: Harderian gland, lesion: adenoma, dosed 104 weeks, study length 104 weeks): 61.3 mg/kg/day | TD50 (mouse, strain B6C3F1, females, site: Zymbal's gland, lesion: carcinoma, dosed 104 weeks, study length 104 weeks): 864 mg/kg/day | TD50 (mouse, strain B6C3F1, females, site: all sites + forestomach + Harderian gland + liver + lung + mesentery + mammary gland + subcutaneous tissue + Zymbal's gland, lesion: hemangioma + hemangiosarcoma + squamous-cell carcinoma + squamous-cell papilloma + adenoma + carcinoma + hepatocellular adenoma + hepa, dosed 104 weeks, study length 104 weeks): 4 mg/kg/day | TD50 (mouse, strain B6C3F1, females, site: all sites, lesion: hemangioma + hemangiosarcoma, dosed 104 weeks, study length 104 weeks): 21.5 mg/kg/day | TD50 (mouse, strain B6C3F1, females, site: all sites, lesion: hemangioma, dosed 104 weeks, study length 104 weeks): 134 mg/kg/day | TD50 (mouse, strain B6C3F1, females, site: all sites, lesion: hemangiosarcoma, dosed 104 weeks, study length 104 weeks): 22.2 mg/kg/day | TD50 (mouse, strain B6C3F1, females, site: any site (literature study), lesion: several types, types named in the paper, dosed 104 weeks, study length 104 weeks): 3.92 mg/kg/day | TD50 (mouse, strain B6C3F1, females, site: forestomach, lesion: squamous-cell carcinoma + squamous-cell papilloma, dosed 104 weeks, study length 104 weeks): 332 mg/kg/day | TD50 (mouse, strain B6C3F1, females, site: liver, lesion: hepatocellular adenoma + hepatoblastoma + hepatocellular carcinoma, dosed 104 weeks, study length 104 weeks): 7.07 mg/kg/day | TD50 (mouse, strain B6C3F1, females, site: liver, lesion: hepatocellular adenoma + hepatocellular carcinoma, dosed 104 weeks, study length 104 weeks): 7.07 mg/kg/day | TD50 (mouse, strain B6C3F1, females, site: liver, lesion: hepatocellular adenoma, dosed 104 weeks, study length 104 weeks): 19.8 mg/kg/day | TD50 (mouse, strain B6C3F1, females, site: liver, lesion: hepatocellular carcinoma, dosed 104 weeks, study length 104 weeks): 15.2 mg/kg/day | TD50 (mouse, strain B6C3F1, females, site: lung, lesion: alveolar/bronchiolar adenoma + alveolar/bronchiolar carcinoma, dosed 104 weeks, study length 104 weeks): 5.36 mg/kg/day | TD50 (mouse, strain B6C3F1, females, site: lung, lesion: alveolar/bronchiolar adenoma, dosed 104 weeks, study length 104 weeks): 8.65 mg/kg/day | TD50 (mouse, strain B6C3F1, females, site: lung, lesion: alveolar/bronchiolar carcinoma, dosed 104 weeks, study length 104 weeks): 14.6 mg/kg/day | TD50 (mouse, strain B6C3F1, females, site: mammary gland, lesion: adenoma + carcinoma, dosed 104 weeks, study length 104 weeks): 65.6 mg/kg/day | TD50 (mouse, strain B6C3F1, females, site: mammary gland, lesion: carcinoma, dosed 104 weeks, study length 104 weeks): 75.3 mg/kg/day | TD50 (mouse, strain B6C3F1, females, site: mesentery, lesion: hemangioma + hemangiosarcoma, dosed 104 weeks, study length 104 weeks): 25.9 mg/kg/day | TD50 (mouse, strain B6C3F1, females, site: mesentery, lesion: hemangiosarcoma, dosed 104 weeks, study length 104 weeks): 32.2 mg/kg/day | TD50 (mouse, strain B6C3F1, females, site: mesentery, lesion: sarcoma, dosed 104 weeks, study length 104 weeks): 40 mg/kg/day | TD50 (mouse, strain B6C3F1, females, site: pituitary gland, lesion: pars distalis adenoma, dosed 104 weeks, study length 104 weeks): 68.1 mg/kg/day | TD50 (mouse, strain B6C3F1, females, site: subcutaneous tissue, lesion: sarcoma, dosed 104 weeks, study length 104 weeks): 28.9 mg/kg/day | TD50 (mouse, strain B6C3F1, females, site: uterus, lesion: endometrial stromal polyp, dosed 104 weeks, study length 104 weeks): 133 mg/kg/day | TD50 (mouse, strain B6C3F1, males, site: Harderian gland, lesion: adenoma + adenoma, bilateral + carcinoma, dosed 104 weeks, study length 104 weeks): 60.9 mg/kg/day | TD50 (mouse, strain B6C3F1, males, site: Harderian gland, lesion: adenoma + adenoma, bilateral, dosed 104 weeks, study length 104 weeks): 79.5 mg/kg/day | TD50 (mouse, strain B6C3F1, males, site: all sites + forestomach + Harderian gland + lung, lesion: hemangioma + hemangiosarcoma + squamous-cell carcinoma + squamous-cell papilloma + adenoma + adenoma, bilateral + carcinoma + alveolar, dosed 104 weeks, study length 104 weeks): 8.68 mg/kg/day | TD50 (mouse, strain B6C3F1, males, site: all sites, lesion: hemangioma + hemangiosarcoma, dosed 104 weeks, study length 104 weeks): 17.9 mg/kg/day and 21.3 mg/kg/day | TD50 (mouse, strain B6C3F1, males, site: all sites, lesion: hemangiosarcoma, dosed 104 weeks, study length 104 weeks): 19.1 mg/kg/day and 23.8 mg/kg/day | TD50 (mouse, strain B6C3F1, males, site: any site (literature study), lesion: several types, types named in the paper, dosed 104 weeks, study length 104 weeks): 28.4 mg/kg/day | TD50 (mouse, strain B6C3F1, males, site: forestomach, lesion: squamous-cell carcinoma + squamous-cell papilloma, dosed 104 weeks, study length 104 weeks): 291 mg/kg/day | TD50 (mouse, strain B6C3F1, males, site: forestomach, lesion: squamous-cell papilloma, dosed 104 weeks, study length 104 weeks): 335 mg/kg/day | TD50 (mouse, strain B6C3F1, males, site: kidney, lesion: tubule adenoma, dosed 104 weeks, study length 104 weeks): 301 mg/kg/day and 129 mg/kg/day | TD50 (mouse, strain B6C3F1, males, site: liver, lesion: hemangiosarcoma, dosed 104 weeks, study length 104 weeks): 123 mg/kg/day | TD50 (mouse, strain B6C3F1, males, site: liver, lesion: hepatoblastoma + hepatocellular carcinoma, dosed 104 weeks, study length 104 weeks): 19.5 mg/kg/day | TD50 (mouse, strain B6C3F1, males, site: liver, lesion: hepatocellular adenoma + hepatoblastoma + hepatocellular carcinoma, dosed 104 weeks, study length 104 weeks): 39.9 mg/kg/day | TD50 (mouse, strain B6C3F1, males, site: liver, lesion: hepatocellular adenoma + hepatocellular carcinoma, dosed 104 weeks, study length 104 weeks): 42.5 mg/kg/day | TD50 (mouse, strain B6C3F1, males, site: liver, lesion: hepatocellular adenoma, dosed 104 weeks, study length 104 weeks): 71.9 mg/kg/day | TD50 (mouse, strain B6C3F1, males, site: liver, lesion: hepatocellular carcinoma, dosed 104 weeks, study length 104 weeks): 21.6 mg/kg/day
